Several values for one entry are separate records, joined by “and”; a condition that tells them apart may be missing. Identical values can stand only once.
How the values were obtained:
Assay type in all cases: in vivo
Common Chickweed [1] = test: pre-emergence herbicide test; conditions: 0.25 lb/A; for inhibition at 280.212 g/ha: pre-emergence, read-out: % plant inhibition
How it was run: (§1)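 Soil-applied pre-emergence screen: compound added to cover topsoil over sown seeds, pans held on greenhouse bench with subirrigation, % inhibition scored ~2 weeks later.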

Velvetleaf [2] = test: pre-emergence herbicide test; conditions: 0.25 lb/A; for inhibition at 280.212 g/ha: Abutilon theophrasti, pre-emergence, read-out: % plant inhibition
How it was run: as §1

Bedstraw Catchweed [3] = test: pre-emergence herbicide test; conditions: 0.25 lb/A; for inhibition at 280.212 g/ha: Galium aparine, pre-emergence, read-out: % plant inhibition
How it was run: as §1

Giant Foxtail [4] = test: pre-emergence herbicide test; conditions: 0.25 lb/A; for inhibition at 280.212 g/ha: Setaria faberi, pre-emergence, read-out: % plant inhibition
How it was run: as §1

Green Foxtail [5] = test: pre-emergence herbicide test; conditions: 0.25 lb/A; for inhibition at 280.212 g/ha: Setaria viridis, pre-emergence, read-out: % plant inhibition
How it was run: as §1

Seedling Johnsongrass [6] = test: pre-emergence herbicide test; conditions: 0.25 lb/A; for inhibition at 280.212 g/ha: Sorghum halepense, pre-emergence, read-out: % plant inhibition
How it was run: as §1

Blackgrass [7] = test: pre-emergence herbicide test; conditions: 0.25 lb/A; for inhibition at 280.212 g/ha: Alopecurus myosuroides, pre-emergence, read-out: % plant inhibition
How it was run: as §1

Downy Brome [8] = test: pre-emergence herbicide test; conditions: 0.25 lb/A; for inhibition at 280.212 g/ha: Bromus tectorum, pre-emergence, read-out: % plant inhibition
How it was run: as §1

Wheat [9] = test: pre-emergence herbicide test; conditions: 0.25 lb/A; for inhibition at 280.212 g/ha: Triticum aestivum, pre-emergence, read-out: % plant inhibition
How it was run: as §1

Barnyardgrass [10] = test: pre-emergence herbicide test; conditions: 0.25 lb/A; for inhibition at 280.212 g/ha: Echinochloa crus-galli, pre-emergence, read-out: % plant inhibition
How it was run: as §1

Wild Oats [11] = test: pre-emergence herbicide test; conditions: 0.25 lb/A; for inhibition at 280.212 g/ha: Avena fatua, pre-emergence, read-out: % plant inhibition
How it was run: as §1

Cocklebur [12] = test: pre-emergence herbicide test; conditions: 0.25 lb/A; for inhibition at 280.212 g/ha: Xanthium strumarium, pre-emergence, read-out: % plant inhibition
How it was run: as §1

Corn [13] = test: pre-emergence herbicide test; conditions: 0.25 lb/A; for inhibition at 280.212 g/ha: Zea mays, pre-emergence, read-out: % plant inhibition
How it was run: as §1

Soybean [14] = test: pre-emergence herbicide test; conditions: 0.25 lb/A; for inhibition at 280.212 g/ha: Glycine max, pre-emergence, read-out: % plant inhibition
How it was run: as §1

Birdseye Speedwell [15] = test: pre-emergence herbicide test; conditions: 0.25 lb/A; for inhibition at 280.212 g/ha: pre-emergence, read-out: % plant inhibition
How it was run: as §1

Rape [16] = test: pre-emergence herbicide test; conditions: 0.25 lb/A; for inhibition at 280.212 g/ha: pre-emergence, read-out: % plant inhibition
How it was run: as §1

Morning Glory [17] = test: pre-emergence herbicide test; conditions: 0.25 lb/A
How it was run: as §1

Common Chickweed [18] = test: post-emergence herbicide test; conditions: 0.25 lb/A; for inhibition at 280.212 g/ha: post-emergence, read-out: % plant inhibition
How it was run: (§2)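 Each pan is moved to a spraying chamber when plants are two to three weeks old and sprayed by atomizer at 10 psig, delivering 1870 L/Ha containing about 0.4% by volume emulsifier. Greenhouse-grown from seed; percent inhibition scored.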

Velvetleaf [19] = test: post-emergence herbicide test; conditions: 0.25 lb/A; for inhibition at 280.212 g/ha: Abutilon theophrasti, post-emergence, read-out: % plant inhibition
How it was run: as §2

Bedstraw Catchweed [20] = test: post-emergence herbicide test; conditions: 0.25 lb/A; for inhibition at 280.212 g/ha: Galium aparine, post-emergence, read-out: % plant inhibition
How it was run: as §2

Giant Foxtail [21] = test: post-emergence herbicide test; conditions: 0.25 lb/A; for inhibition at 280.212 g/ha: Setaria faberi, post-emergence, read-out: % plant inhibition
How it was run: as §2

Green Foxtail [22] = test: post-emergence herbicide test; conditions: 0.25 lb/A; for inhibition at 280.212 g/ha: Setaria viridis, post-emergence, read-out: % plant inhibition
How it was run: as §2

Seedling Johnsongrass [23] = test: post-emergence herbicide test; conditions: 0.25 lb/A; for inhibition at 280.212 g/ha: Sorghum halepense, post-emergence, read-out: % plant inhibition
How it was run: as §2

Blackgrass [24] = test: post-emergence herbicide test; conditions: 0.25 lb/A; for inhibition at 280.212 g/ha: Alopecurus myosuroides, post-emergence, read-out: % plant inhibition
How it was run: as §2

Downy Brome [25] = test: post-emergence herbicide test; conditions: 0.25 lb/A; for inhibition at 280.212 g/ha: Bromus tectorum, post-emergence, read-out: % plant inhibition
How it was run: as §2

Wheat [26] = test: post-emergence herbicide test; conditions: 0.25 lb/A; for inhibition at 280.212 g/ha: Triticum aestivum, post-emergence, read-out: % plant inhibition
How it was run: as §2

Barnyardgrass [27] = test: post-emergence herbicide test; conditions: 0.25 lb/A; for inhibition at 280.212 g/ha: Echinochloa crus-galli, post-emergence, read-out: % plant inhibition
How it was run: as §2

Wild Oats [28] = test: post-emergence herbicide test; conditions: 0.25 lb/A; for inhibition at 280.212 g/ha: Avena fatua, post-emergence, read-out: % plant inhibition
How it was run: as §2

Cocklebur [29] = test: post-emergence herbicide test; conditions: 0.25 lb/A; for inhibition at 280.212 g/ha: Xanthium strumarium, post-emergence, read-out: % plant inhibition
How it was run: as §2

Corn [30] = test: post-emergence herbicide test; conditions: 0.25 lb/A; for inhibition at 280.212 g/ha: Zea mays, post-emergence, read-out: % plant inhibition
How it was run: as §2

Soybean [31] = test: post-emergence herbicide test; conditions: 0.25 lb/A; for inhibition at 280.212 g/ha: Glycine max, post-emergence, read-out: % plant inhibition
How it was run: as §2

Birdseye Speedwell [32] = test: post-emergence herbicide test; conditions: 0.25 lb/A; for inhibition at 280.212 g/ha: post-emergence, read-out: % plant inhibition
How it was run: as §2

Rape [33] = test: post-emergence herbicide test; conditions: 0.25 lb/A; for inhibition at 280.212 g/ha: post-emergence, read-out: % plant inhibition
How it was run: as §2

Morning Glory [34] = test: post-emergence herbicide test; conditions: 0.25 lb/A; for inhibition at 280.212 g/ha: Ipomoea, post-emergence, read-out: % plant inhibition
How it was run: as §2

## CC(C)OC(=O)c1cc(-c2nn(C)c(C(F)(F)F)c2C(F)F)c(F)cc1Cl [Compound 13, 2-Chloro-5-[4-(difluoromethyl)-1-methyl-5-(trifluoromethyl)-1H-pyrazol-3-yl]-4-fluorobenzoic acid, 1-methylethyl ester]
Common Chickweed [1]
  inhibition at 280.212 g/ha: 90%
Velvetleaf [2]
  % plant inhibition: 98%
  inhibition at 280.212 g/ha: 100%
Bedstraw Catchweed [3]
  inhibition at 280.212 g/ha: 100%
Giant Foxtail [4]
  inhibition at 280.212 g/ha: 100%
Green Foxtail [5]
  inhibition at 280.212 g/ha: 100%
Seedling Johnsongrass [6]
  inhibition at 280.212 g/ha: 100%
Blackgrass [7]
  inhibition at 280.212 g/ha: 98%
Downy Brome [8]
  inhibition at 280.212 g/ha: 100%
Wheat [9]
  inhibition at 280.212 g/ha: 3%
Barnyardgrass [10]
  % plant inhibition: 99%
  inhibition at 280.212 g/ha: 100%
Wild Oats [11]
  inhibition at 280.212 g/ha: 95%
Cocklebur [12]
  % plant inhibition: 75%
  inhibition at 280.212 g/ha: 70%
Corn [13]
  % plant inhibition: 65%
  inhibition at 280.212 g/ha: 80%
Soybean [14]
  inhibition at 280.212 g/ha: 30%
Birdseye Speedwell [15]
  inhibition at 280.212 g/ha: 90%
Rape [16]
  inhibition at 280.212 g/ha: 65%
Morning Glory [17]
  % plant inhibition: 50% and 93%
Common Chickweed [18]
  inhibition at 280.212 g/ha: 98%
Velvetleaf [19]
  inhibition at 280.212 g/ha: 100%
Bedstraw Catchweed [20]
  inhibition at 280.212 g/ha: 100%
Giant Foxtail [21]
  inhibition at 280.212 g/ha: 95%
Green Foxtail [22]
  inhibition at 280.212 g/ha: 100%
Seedling Johnsongrass [23]
  inhibition at 280.212 g/ha: 100%
Blackgrass [24]
  inhibition at 280.212 g/ha: 95%
Downy Brome [25]
  inhibition at 280.212 g/ha: 90%
Wheat [26]
  inhibition at 280.212 g/ha: 20%
Barnyardgrass [27]
  inhibition at 280.212 g/ha: 90%
Wild Oats [28]
  inhibition at 280.212 g/ha: 90%
Cocklebur [29]
  inhibition at 280.212 g/ha: 95%
Corn [30]
  inhibition at 280.212 g/ha: 55%
Soybean [31]
  inhibition at 280.212 g/ha: 90%
Birdseye Speedwell [32]
  inhibition at 280.212 g/ha: 100%
Rape [33]
  inhibition at 280.212 g/ha: 100%
Morning Glory [34]
  inhibition at 280.212 g/ha: 98%

## Cc1c(-c2ccc(Cl)cc2)nn(C)c1C(F)(F)F [Compound 7, 3-(4-chlorophenyl)-1,4-dimethyl-5-(trifluoromethyl)pyrazole]
Common Chickweed [1]
  inhibition at 280.212 g/ha: 0%
Velvetleaf [2]
  inhibition at 280.212 g/ha: 0%
Bedstraw Catchweed [3]
  inhibition at 280.212 g/ha: 5%
Giant Foxtail [4]
  inhibition at 280.212 g/ha: 15%
Green Foxtail [5]
  inhibition at 280.212 g/ha: 0%
Seedling Johnsongrass [6]
  inhibition at 280.212 g/ha: 25%
Blackgrass [7]
  inhibition at 280.212 g/ha: 0%
Downy Brome [8]
  inhibition at 280.212 g/ha: 0%
Wheat [9]
  inhibition at 280.212 g/ha: 0%
Barnyardgrass [10]
  inhibition at 280.212 g/ha: 0%
Wild Oats [11]
  inhibition at 280.212 g/ha: 0%
Cocklebur [12]
  inhibition at 280.212 g/ha: 0%
Corn [13]
  inhibition at 280.212 g/ha: 0%
Soybean [14]
  inhibition at 280.212 g/ha: 0%
Birdseye Speedwell [15]
  inhibition at 280.212 g/ha: 0%
Rape [16]
  inhibition at 280.212 g/ha: 0%
Morning Glory [17]; Ipomoea, pre-emergence, read-out: % plant inhibition
  inhibition at 280.212 g/ha: 0%
Common Chickweed [18]
  inhibition at 280.212 g/ha: 0%
Velvetleaf [19]
  inhibition at 280.212 g/ha: 5%
Bedstraw Catchweed [20]
  inhibition at 280.212 g/ha: 35%
Giant Foxtail [21]
  inhibition at 280.212 g/ha: 0%
Green Foxtail [22]
  inhibition at 280.212 g/ha: 20%
Seedling Johnsongrass [23]
  inhibition at 280.212 g/ha: 0%
Blackgrass [24]
  inhibition at 280.212 g/ha: 5%
Downy Brome [25]
  inhibition at 280.212 g/ha: 5%
Wheat [26]
  inhibition at 280.212 g/ha: 5%
Barnyardgrass [27]
  inhibition at 280.212 g/ha: 0%
Wild Oats [28]
  inhibition at 280.212 g/ha: 5%
Cocklebur [29]
  inhibition at 280.212 g/ha: 0%
Corn [30]
  inhibition at 280.212 g/ha: 0%
Soybean [31]
  inhibition at 280.212 g/ha: 5%
Birdseye Speedwell [32]
  inhibition at 280.212 g/ha: 65%
Rape [33]
  inhibition at 280.212 g/ha: 0%
Morning Glory [34]
  inhibition at 280.212 g/ha: 0%

## Cc1c(-c2cc(C(=O)OCCC(C)C)c(Cl)cc2F)nn(C)c1C(F)(F)F [Compound 55]
Common Chickweed [1]
  % plant inhibition: 75%
Velvetleaf [2]
  % plant inhibition: 85%
Bedstraw Catchweed [3]
  % plant inhibition: 85%
Giant Foxtail [4]
  % plant inhibition: 100%
Green Foxtail [5]
  % plant inhibition: 100%
Seedling Johnsongrass [6]
  % plant inhibition: 95%
Blackgrass [7]
  % plant inhibition: 60%
Downy Brome [8]
  % plant inhibition: 55%
Wheat [9]
  % plant inhibition: 0%
Barnyardgrass [10]
  % plant inhibition: 30%
Wild Oats [11]
  % plant inhibition: 35%
Cocklebur [12]
  % plant inhibition: 30%
Corn [13]
  % plant inhibition: 0%
Soybean [14]
  % plant inhibition: 0%
Birdseye Speedwell [15]
  % plant inhibition: 100%
Rape [16]
  % plant inhibition: 5%
Morning Glory [17]
  % plant inhibition: 10%
Common Chickweed [18]
  % plant inhibition: 70%
Velvetleaf [19]
  % plant inhibition: 99%
Bedstraw Catchweed [20]
  % plant inhibition: 75%
Giant Foxtail [21]
  % plant inhibition: 35%
Green Foxtail [22]
  % plant inhibition: 65%
Seedling Johnsongrass [23]
  % plant inhibition: 70%
Blackgrass [24]
  % plant inhibition: 20%
Downy Brome [25]
  % plant inhibition: 20%
Wheat [26]
  % plant inhibition: 10%
Barnyardgrass [27]
  % plant inhibition: 45%
Wild Oats [28]
  % plant inhibition: 30%
Cocklebur [29]
  % plant inhibition: 90%
Corn [30]
  % plant inhibition: 20%
Soybean [31]
  % plant inhibition: 20%
Birdseye Speedwell [32]
  % plant inhibition: 95%
Rape [33]
  % plant inhibition: 15%
Morning Glory [34]
  % plant inhibition: 85%
